Source: patent US4335249A, “Herbicidal diphenyl ethers, sulfides, sulfoxides and sulfones” (Rohm and Haas Company, priority 1976, dated 1982)

Columns and labels:
Type in all cases: in vivo
[1] = test system: cocklebur (Xanthium pensylvanicum); experiment: Preemergence herbicidal activity, cocklebur; conditions: Xanthium strumarium, pre-emergence, 336 h, 2 lb/A
Method: (§1) Using the procedure described below, compounds of the invention are evaluated for control of several of the following plant species:
(§2) The following est procedure is employed. Seeds of selected crops and weeds are planted in soil in flats. For preemergence tests, the flats are treated with the test compound immediately after the planting. For postemergence tests, the seeds are allowed to germinate, and after two weeks the flats are treated with the test compound. The compound to be evaluated is dissolved in acetone, diluted with water, and sprayed over the flats using a carrier volume equivalent to 50 gallons per acre at the rate of application (pounds per acre, lb/A.) specified in the tables. About two weeks after the application of the test compound, the state of growth of the plants is observed and the phytotoxic effect of the compound is evaluated. Tables III and IV give the average percent control achieved by test compounds in terms of the percent of the plants which are killed by the compounds.

marigold (Tagetes spp.) [2] = experiment: Preemergence herbicidal activity, marigold; conditions: pre-emergence, 336 h, 2 lb/A
Method: as §1, §2

[3] = test system: morningglory (Ipomoca spp.); experiment: Preemergence herbicidal activity, morningglory; conditions: Ipomoea, pre-emergence, 336 h, 2 lb/A
Method: as §1, §2

[4] = test system: tomato (Lycopersicon esculentum); experiment: Preemergence herbicidal activity, tomato; conditions: Solanum lycopersicum, pre-emergence, 336 h; Pre, 2 lb/A
Method: as §1, §2

[5] = test system: velvetleaf (Abutilon theophrasti); experiment: Preemergence herbicidal activity, velvetleaf; conditions: Abutilon theophrasti, pre-emergence, 336 h; Pre, 2 lb/A
Method: as §1, §2

[6] = test system: barnyardgrass (Echinochloa crusgalli); experiment: Preemergence herbicidal activity, barnyardgrass; conditions: Echinochloa crus-galli, pre-emergence, 336 h; Pre, 2 lb/A
Method: as §1
(§3) The following est procedure is employed. Seeds of selected crops and weeds are planted in soil in flats. For preemergence tests, the flats are treated with the test compound immediately after the planting. For postemergence tests, the seeds are allowed to germinate, and after two weeks the flats are treated with the test compound. The compound to be evaluated is dissolved in acetone, diluted with water, and sprayed over the flats using a carrier volume equivalent to 50 gallons per acre at the rate of application (pounds per acre, lb/A.) specified in the tables.

[7] = test system: downybrome (Bromus tectorum); experiment: Preemergence herbicidal activity, downybrome; conditions: Bromus tectorum, pre-emergence, 336 h, Pre, 2 lb/A
Method: as §1, §2

foxtail (Setaria spp.) [8] = experiment: Preemergence herbicidal activity, foxtail; conditions: Setaria, pre-emergence, 336 h; Pre, 2 lb/A
Method: as §1, §2

[9] = test system: yellow nutsedge (Cyperus esculentus); experiment: Preemergence herbicidal activity, yellow nutsedge; conditions: Cyperus, pre-emergence, 336 h, 2 lb/A
Method: as §1, §2

wild oats (Avena fatua) [10] = experiment: Preemergence herbicidal activity, wild oats; conditions: Avena fatua, pre-emergence, 336 h, Pre, 2 lb/A; read-out: % control, Wild oat
Method: as §1, §2

[11] = test system: cocklebur (Xanthium pensylvanicum); experiment: Postemergence herbicidal activity, cocklebur; conditions: Xanthium strumarium, post-emergence, 336 h, 2 lb/A
Method: as §1, §2

marigold (Tagetes spp.) [12] = experiment: Postemergence herbicidal activity, marigold; conditions: post-emergence, 336 h, 2 lb/A
Method: as §1, §2

[13] = test system: morningglory (Ipomoca spp.); experiment: Postemergence herbicidal activity, morningglory; conditions: Ipomoea, post-emergence, 336 h, 2 lb/A
Method: as §1, §2

[14] = test system: tomato (Lycopersicon esculentum); experiment: Postemergence herbicidal activity, tomato; conditions: Solanum lycopersicum, post-emergence, 336 h, Post, 2 lb/A
Method: as §1, §2

[15] = test system: velvetleaf (Abutilon theophrasti); experiment: Postemergence herbicidal activity, velvetleaf; conditions: Abutilon theophrasti, post-emergence, 336 h, 2 lb/A
Method: as §1, §3

[16] = test system: barnyardgrass (Echinochloa crusgalli); experiment: Postemergence herbicidal activity, barnyardgrass; conditions: Echinochloa crus-galli, post-emergence, 336 h; Post, 2 lb/A
Method: as §1, §3

[17] = test system: downybrome (Bromus tectorum); experiment: Postemergence herbicidal activity, downybrome; conditions: Bromus tectorum, post-emergence, 336 h, Post, 2 lb/A
Method: as §1, §2

foxtail (Setaria spp.) [18] = experiment: Postemergence herbicidal activity, foxtail; conditions: Setaria, post-emergence, 336 h, Post, 2 lb/A
Method: as §1, §2

[19] = test system: yellow nutsedge (Cyperus esculentus); experiment: Postemergence herbicidal activity, yellow nutsedge; conditions: Cyperus, post-emergence, 336 h, 2 lb/A
Method: as §1, §2

wild oats (Avena fatua) [20] = experiment: Postemergence herbicidal activity, wild oats; conditions: Avena fatua, post-emergence, 336 h, Post, 2 lb/A; read-out: % control, Wild oat
Method: as §1, §2

Row | SMILES | pest or weed control at 2241.7 g/ha [1] | pest or weed control at 2241.7 g/ha (marigold (Tagetes spp.) [2]) | pest or weed control at 2241.7 g/ha [3] | pest or weed control at 2241.7 g/ha [4] | pest or weed control at 2241.7 g/ha [5] | pest or weed control at 2241.7 g/ha [6] | pest or weed control at 2241.7 g/ha [7] | pest or weed control at 2241.7 g/ha (foxtail (Setaria spp.) [8]) | pest or weed control at 2241.7 g/ha [9] | pest or weed control at 2241.7 g/ha (wild oats (Avena fatua) [10]) | pest or weed control at 2241.7 g/ha [11] | pest or weed control at 2241.7 g/ha (marigold (Tagetes spp.) [12]) | pest or weed control at 2241.7 g/ha [13] | pest or weed control at 2241.7 g/ha [14] | pest or weed control at 2241.7 g/ha [15] | pest or weed control at 2241.7 g/ha [16] | pest or weed control at 2241.7 g/ha [17] | pest or weed control at 2241.7 g/ha (foxtail (Setaria spp.) [18]) | pest or weed control at 2241.7 g/ha [19] | pest or weed control at 2241.7 g/ha (wild oats (Avena fatua) [20])
1 | CCOC(=O)C(C)Oc1ccc(Oc2ccc(C(F)(F)F)cc2Cl)cc1OC (stereo not shown) [Example 8, Ethyl 2-[4-(2-chloro-4-trifluoromethylphenoxy)-2-methoxyphenoxy] propionate] | 0% | 0% | 0% | 0% | 0% | 0% | 0% | 99% | 0% | 0% | 0% | 0% | 0% | 0% | 0% | 0% | 0% | 0% | 0% | 0%
2 | CC(C#N)Oc1ccc(Oc2ccc(C(F)(F)F)cc2)cc1 (stereo not shown) [Example 41, 2-[4-(4-trifluoromethylphenoxy)phenoxy] propionitrile] | 0% | 0% | 0% | 0% | 0% | 99% | 80% | 100% | 0% | 70% | 0% | 0% | 0% | 0% | 0% | 100% | 40% | 60% | 0% | 99%
3 | CCOC(=O)C=CCOc1ccc(Oc2ccc(C(F)(F)F)cc2Cl)cc1 [Example 30] | 0% | 0% | 0% | 0% | 0% | 60% | 0% | 60% | 0% | 0% | 0% | 0% | 0% | 30% | 0% | 0% | 0% | 100% | 0% | 30%
4 | CCOC(=O)COc1ccc(Oc2ccc(C(F)(F)F)cc2Cl)cc1 [Example 11] | 0% | 0% | 0% | 0% | 0% | 0% | 0% | 30% | 0% | 0% | 50% | 0% | 30% | 0% | 20% | 20% | 0% | 30% | 0% | 40%
5 | CCOC(=O)C(C)Oc1ccc(Oc2ccc(C(F)(F)F)cc2Cl)cc1C (stereo not shown) [Example 10] | 0% | 0% | 0% | 0% | 0% | 0% | 0% | 0% | 0% | 0% | 40% | 0% | 80% | 30% | 40% | 0% | 0% | 0% | 0% | 0%
6 | CCOC(=O)C(C)Oc1ccc(Sc2ccc(C(F)(F)F)cc2C#N)cc1 (stereo not shown) [Example 47] | 0% | 0% | 0% | 0% | 0% | 100% | 40% | 95% | 0% | 100% | 0% | 0% | 0% | 0% | 0% | 100% | 99% | 99% | 0% | 99%
7 | CCOC(=O)C(Oc1ccc(Oc2ccc(C(F)(F)F)cc2Cl)cc1)C(C)C (stereo not shown) [Example 28] | 0% | 0% | 70% | 0% | 0% | 95% | 30% | 90% | 0% | 0% | 0% | 0% | 0% | 0% | 0% | 60% | 20% | 99% | 0% | 60%
8 | CCCOC(=O)C(C)Oc1ccc(Oc2ccc(C(F)(F)F)cc2Cl)cc1 (stereo not shown) [Example 32] | 0% | 0% | 0% | 0% | 0% | 100% | 80% | 100% | 0% | 80% | 0% | 20% | 0% | 30% | 30% | 100% | 100% | 100% | 0% | 100%
